Columns and labels:
Type in all cases: in vivo
Pharbitis purpurea [1] = test: Herbicidal action post-emergence, greenhouse pot test
Method in brief: (§1)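 Sandy loam pots, greenhouse; one-leaf stage (2–3 wk post-sowing); WP/EC spray as aqueous suspension/emulsion + 0.5% additive, 600 L/ha; rate ≤80 g/ha; visual % efficacy vs untreated at ~3 wk.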

Veronica persica [2] = test: as above
Method in brief: as §1

Abutilon theophrasti [3] = test: as above
Method in brief: as §1

Matricaria inodora [4] = test: as above; conditions: application rate 80 g/ha
Method in brief: as §1

Avena fatua [5] = test: as above; conditions: application rate 80 g/ha
Method in brief: as §1

Alopecurus myosuroides [6] = test: as above; conditions: scored visually after about 3 weeks vs untreated controls
Method in brief: as §1

Echinochloa crus-galli [7] = test: as above; conditions: application rate 80 g/ha
Method in brief: as §1

Amaranthus retroflexus [8] = test: as above
Method in brief: as §1

Viola tricolor [9] = test: as above
Method in brief: as §1

Setaria viridis [10] = test: as above
Method in brief: as §1

Polygonum convolvulus [11] = test: as above
Method in brief: as §1

Stellaria media [12] = test: as above
Method in brief: as §1

Lolium rigidum [13] = test: as above; conditions: application rate 80 g/ha
Method in brief: as §1

Hordeum murinum [14] = test: as above
Method in brief: as §1

Pharbitis purpurea [15] = test: Herbicidal action pre-emergence, greenhouse pot test
Method in brief: (§2)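 Pre-emergence soil-surface spray, WP/EC formulations in water plus 0.5% additive, 600 L/ha spray volume; rate 320 g/ha or lower. Greenhouse ~3 wk. Visual % efficacy vs untreated (100% = plants dead, 0% = like control).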

Veronica persica [16] = test: as above
Method in brief: as §2

Abutilon theophrasti [17] = test: as above
Method in brief: as §2

Avena fatua [18] = test: as above; conditions: application rate 320 g/ha
Method in brief: as §2

Alopecurus myosuroides [19] = test: as above; conditions: application rate 320 g/ha
Method in brief: as §2

Echinochloa crus-galli [20] = test: as above; conditions: application rate 320 g/ha
Method in brief: as §2

Amaranthus retroflexus [21] = test: as above
Method in brief: as §2

Viola tricolor [22] = test: as above
Method in brief: as §2

Setaria viridis [23] = test: as above
Method in brief: as §2

Polygonum convolvulus [24] = test: as above
Method in brief: as §2

Stellaria media [25] = test: as above
Method in brief: as §2

Lolium rigidum [26] = test: as above; conditions: application rate 320 g/ha
Method in brief: as §2

Hordeum murinum [27] = test: as above; conditions: application rate 320 g/ha
Method in brief: as §2

Matricaria inodora [28] = test: as above
Oryza sativa = test: Crop compatibility post-emergence, greenhouse pot test
Method in brief: (§3)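 Sandy loam pots, greenhouse; one-leaf stage, 2–3 wk post-sowing; WP or EC, aq. spray on green parts, 0.5% additive, 600 L/ha; ~3 wk; visual score % vs untreated (0 = control-like, 100 = dead).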

Triticum aestivum = test: as above
Method in brief: as §3

Digitaria sanguinalis = test: Herbicidal action post-emergence, greenhouse pot test; conditions: application rate 80 g/ha
Zea mays = test: Crop compatibility post-emergence, greenhouse pot test
Method in brief: as §3

Cyperus esculentus = test: Herbicidal action pre-emergence, greenhouse pot test
Method in brief: as §2

Glycine max = test: Crop compatibility post-emergence, greenhouse pot test; conditions: application rate 20 g/ha
Method in brief: as §3

| SMILES | Pharbitis purpurea (Efficacy in %) (Pharbitis purpurea [1]; application rate 20 g/ha) [%] | Veronica persica (Efficacy in %) (Veronica persica [2]; application rate 20 g/ha) [%] | Abutilon theophrasti (Efficacy in %) (Abutilon theophrasti [3]; application rate 80 g/ha) [%] | Matricaria inodora (Efficacy in %) (Matricaria inodora [4]) [%] | Avena fatua (Efficacy in %) (Avena fatua [5]) [%] | Alopecurus myosuroides (Efficacy in %) (Alopecurus myosuroides [6]; application rate 80 g/ha) [%] | Echinochloa crus-galli (Efficacy in %) (Echinochloa crus-galli [7]) [%] | Amaranthus retroflexus (Efficacy in %) (Amaranthus retroflexus [8]; application rate 80 g/ha) [%] | Viola tricolor (Efficacy in %) (Viola tricolor [9]; application rate 80 g/ha) [%] | Setaria viridis (Efficacy in %) (Setaria viridis [10]; application rate 80 g/ha) [%] | Lolium rigidum (Efficacy in %) (Lolium rigidum [13]) [%] | Veronica persica (Efficacy in %) (Veronica persica [16]; application rate 80 g/ha) [%] | Avena fatua (Efficacy in %) (Avena fatua [18]) [%] | Alopecurus myosuroides (Efficacy in %) (Alopecurus myosuroides [19]) [%] | Echinochloa crus-galli (Efficacy in %) (Echinochloa crus-galli [20]) [%] | Amaranthus retroflexus (Efficacy in %) (Amaranthus retroflexus [21]; application rate 80 g/ha) [%] | Lolium rigidum (Efficacy in %) (Lolium rigidum [26]) [%] | Hordeum murinum (Efficacy in %) (Hordeum murinum [27]) [%] | Polygonum convolvulus (Efficacy in %) (Polygonum convolvulus [11]; application rate 80 g/ha) [%] | Hordeum murinum (Efficacy in %) (Hordeum murinum [14]; application rate 80 g/ha) [%] | also measured |
| --- | --- | --- | --- | --- | --- | --- | --- | --- | --- | --- | --- | --- | --- | --- | --- | --- | --- | --- | --- | --- | --- |
| COC(=O)CCOC(=O)C(C)Sc1cc(-n2c(=O)cc(C(F)(F)F)n(C)c2=O)c(F)cc1Cl (centres unmarked) [I.1-2] | 100 | 100 | 100 | 100 | 80 | 100 | 100 | 100 | 100 | 100 | 90 | 100 | 90 | 90 | 100 | 100 | 100 | 90 | – | – | Polygonum convolvulus (Efficacy in %) (Polygonum convolvulus [11]; application rate 20 g/ha): 100%; Stellaria media (Efficacy in %) (Stellaria media [12]; application rate 20 g/ha): 100%; Hordeum murinum (Efficacy in %) (Hordeum murinum [14]; application rate 20 g/ha): 100%; Pharbitis purpurea (Efficacy in %) (Pharbitis purpurea [15]; application rate 80 g/ha): 100%; Abutilon theophrasti (Efficacy in %) (Abutilon theophrasti [17]; application rate 80 g/ha): 100%; Viola tricolor (Efficacy in %) (Viola tricolor [22]; application rate 80 g/ha): 100%; Setaria viridis (Efficacy in %) (Setaria viridis [23]; application rate 80 g/ha): 100%; Polygonum convolvulus (Efficacy in %) (Polygonum convolvulus [24]; application rate 80 g/ha): 100%; Stellaria media (Efficacy in %) (Stellaria media [25]; application rate 80 g/ha): 100%; Matricaria inodora (Efficacy in %) (Matricaria inodora [28]; application rate 80 g/ha): 100% |
| CCCOC(=O)CCOC(=O)C(C)Sc1cc(-n2c(=O)cc(C(F)(F)F)n(C)c2=O)c(F)cc1Cl (centres unmarked) [I.1-8] | – | – | 100 | 100 | 80 | 90 | 100 | 100 | 100 | 100 | 90 | – | – | 80 | 100 | – | 90 | – | 100 | 90 | Pharbitis purpurea (Efficacy in %) (Pharbitis purpurea [1]; application rate 80 g/ha): 100%; Veronica persica (Efficacy in %) (Veronica persica [2]; application rate 80 g/ha): 100%; Stellaria media (Efficacy in %) (Stellaria media [12]; application rate 80 g/ha): 100%; Pharbitis purpurea (Efficacy in %) (Pharbitis purpurea [15]; application rate 320 g/ha): 100%; Veronica persica (Efficacy in %) (Veronica persica [16]; application rate 320 g/ha): 100%; Abutilon theophrasti (Efficacy in %) (Abutilon theophrasti [17]; application rate 320 g/ha): 100%; Amaranthus retroflexus (Efficacy in %) (Amaranthus retroflexus [21]; application rate 320 g/ha): 100%; Viola tricolor (Efficacy in %) (Viola tricolor [22]; application rate 320 g/ha): 100%; Setaria viridis (Efficacy in %) (Setaria viridis [23]; application rate 320 g/ha): 100%; Polygonum convolvulus (Efficacy in %) (Polygonum convolvulus [24]; application rate 320 g/ha): 100%; Stellaria media (Efficacy in %) (Stellaria media [25]; application rate 320 g/ha): 100%; Matricaria inodora (Efficacy in %) (Matricaria inodora [28]; application rate 320 g/ha): 100%; Oryza sativa (Efficacy in %) (Oryza sativa; application rate 5 g/ha): 20%; Triticum aestivum (Efficacy in %) (Triticum aestivum; application rate 20 g/ha): 20%; Digitaria sanguinalis (Efficacy in %) (Digitaria sanguinalis): 100% |
| COC(=O)CC(CC(=O)OC)OC(=O)C(C)Sc1cc(-n2c(=O)cc(C(F)(F)F)n(C)c2=O)c(F)cc1Cl (centres unmarked) [I.1-127] | 100 | 100 | 100 | 100 | 80 | 90 | 100 | – | 100 | 100 | 100 | – | 90 | 90 | 100 | – | 100 | 100 | 100 | 90 | Amaranthus retroflexus (Efficacy in %) (Amaranthus retroflexus [8]; application rate 20 g/ha): 100%; Stellaria media (Efficacy in %) (Stellaria media [12]; application rate 20 g/ha): 100%; Pharbitis purpurea (Efficacy in %) (Pharbitis purpurea [15]; application rate 320 g/ha): 100%; Veronica persica (Efficacy in %) (Veronica persica [16]; application rate 320 g/ha): 100%; Abutilon theophrasti (Efficacy in %) (Abutilon theophrasti [17]; application rate 320 g/ha): 100%; Amaranthus retroflexus (Efficacy in %) (Amaranthus retroflexus [21]; application rate 20 g/ha): 100%; Viola tricolor (Efficacy in %) (Viola tricolor [22]; application rate 320 g/ha): 100%; Setaria viridis (Efficacy in %) (Setaria viridis [23]; application rate 320 g/ha): 100%; Polygonum convolvulus (Efficacy in %) (Polygonum convolvulus [24]; application rate 320 g/ha): 100%; Stellaria media (Efficacy in %) (Stellaria media [25]; application rate 320 g/ha): 100%; Matricaria inodora (Efficacy in %) (Matricaria inodora [28]; application rate 320 g/ha): 100%; Zea mays (Efficacy in %) (Zea mays; application rate 5 g/ha): 20% |
| CON(C)C(=O)COC(=O)C(C)Sc1cc(-n2c(=O)cc(C(F)(F)F)n(C)c2=O)c(F)cc1Cl (centres unmarked) [I.1-242] | – | – | 100 | 100 | 80 | – | 100 | 100 | 100 | 100 | 100 | 100 | 80 | 90 | 100 | 100 | 100 | 90 | 100 | 90 | Pharbitis purpurea (Efficacy in %) (Pharbitis purpurea [1]; application rate 80 g/ha): 100%; Veronica persica (Efficacy in %) (Veronica persica [2]; application rate 80 g/ha): 100%; Alopecurus myosuroides (Efficacy in %) (Alopecurus myosuroides [6]; application rate 20 g/ha): 90%; Stellaria media (Efficacy in %) (Stellaria media [12]; application rate 80 g/ha): 100%; Pharbitis purpurea (Efficacy in %) (Pharbitis purpurea [15]; application rate 80 g/ha): 100%; Abutilon theophrasti (Efficacy in %) (Abutilon theophrasti [17]; application rate 80 g/ha): 100%; Viola tricolor (Efficacy in %) (Viola tricolor [22]; application rate 80 g/ha): 100%; Setaria viridis (Efficacy in %) (Setaria viridis [23]; application rate 80 g/ha): 100%; Cyperus esculentus (Efficacy in %) (Cyperus esculentus; application rate 80 g/ha): 80%; Polygonum convolvulus (Efficacy in %) (Polygonum convolvulus [24]; application rate 80 g/ha): 100%; Stellaria media (Efficacy in %) (Stellaria media [25]; application rate 80 g/ha): 100%; Matricaria inodora (Efficacy in %) (Matricaria inodora [28]; application rate 80 g/ha): 100%; Oryza sativa (Efficacy in %) (Oryza sativa; application rate 5 g/ha): 20%; Triticum aestivum (Efficacy in %) (Triticum aestivum; application rate 5 g/ha): 20%; Zea mays (Efficacy in %) (Zea mays; application rate 80 g/ha): 20% |
| CCC(Sc1cc(-n2c(=O)cc(C(F)(F)F)n(C)c2=O)c(F)cc1Cl)C(=O)OCCC(=O)OC (centres unmarked) [I.2-2] | 100 | 100 | 100 | 100 | 80 | 100 | 100 | 100 | 100 | 100 | 80 | 100 | – | 100 | 100 | 100 | 100 | 100 | 100 | 80 | Stellaria media (Efficacy in %) (Stellaria media [12]; application rate 80 g/ha): 100%; Pharbitis purpurea (Efficacy in %) (Pharbitis purpurea [15]; application rate 320 g/ha): 100%; Abutilon theophrasti (Efficacy in %) (Abutilon theophrasti [17]; application rate 320 g/ha): 100%; Viola tricolor (Efficacy in %) (Viola tricolor [22]; application rate 320 g/ha): 100%; Setaria viridis (Efficacy in %) (Setaria viridis [23]; application rate 320 g/ha): 100%; Cyperus esculentus (Efficacy in %) (Cyperus esculentus; application rate 320 g/ha): 90%; Polygonum convolvulus (Efficacy in %) (Polygonum convolvulus [24]; application rate 320 g/ha): 100%; Stellaria media (Efficacy in %) (Stellaria media [25]; application rate 320 g/ha): 100%; Matricaria inodora (Efficacy in %) (Matricaria inodora [28]; application rate 320 g/ha): 100%; Oryza sativa (Efficacy in %) (Oryza sativa; application rate 5 g/ha): 20%; Triticum aestivum (Efficacy in %) (Triticum aestivum; application rate 5 g/ha): 20% |
| CCOC(=O)CCOC(=O)C(CC(C)C)Sc1cc(-n2c(=O)c(C)c(C(F)(F)F)n(C)c2=O)c(F)cc1Cl (centres unmarked) [I.14-3] | 100 | 100 | – | – | – | – | – | – | – | – | – | – | – | – | – | – | – | – | – | – | Abutilon theophrasti (Efficacy in %) (Abutilon theophrasti [3]; application rate 20 g/ha): 100%; Amaranthus retroflexus (Efficacy in %) (Amaranthus retroflexus [8]; application rate 20 g/ha): 100%; Viola tricolor (Efficacy in %) (Viola tricolor [9]; application rate 20 g/ha): 100%; Setaria viridis (Efficacy in %) (Setaria viridis [10]; application rate 20 g/ha): 90%; Polygonum convolvulus (Efficacy in %) (Polygonum convolvulus [11]; application rate 20 g/ha): 100%; Oryza sativa (Efficacy in %) (Oryza sativa; application rate 20 g/ha): 0%; Triticum aestivum (Efficacy in %) (Triticum aestivum; application rate 20 g/ha): 20%; Glycine max (Efficacy in %) (Glycine max): 20% |
